# Reference: PMC7802075 (ACS Infectious Diseases, 2020)
# Counter-ions that a name gives are not always drawn. Like-named read-outs stand apart in the source and are kept apart here.
# Tests used:
# [1] = tested on: L. major (FV1) promastigotes; assay: Antipromastigote resazurin assay, L. major (FV1) wild type; format: cell-based, Leishmania major
# [2] = target: T1, LmjIPCS (inositol phosphorylceramide synthase from L. major) (Leishmania major, UniProt E9AFX2); assay: biochemical; format: biochemical; set-up: inhibition: dose or concentration left out as unconfirmed; conditions: for inhibition at 20000 µM: read-out: 20mM inhibition LmjIPCS; for inhibition: read-out: inhibition LmjIPCS
# T1 sequence (E9AFX2 1-338): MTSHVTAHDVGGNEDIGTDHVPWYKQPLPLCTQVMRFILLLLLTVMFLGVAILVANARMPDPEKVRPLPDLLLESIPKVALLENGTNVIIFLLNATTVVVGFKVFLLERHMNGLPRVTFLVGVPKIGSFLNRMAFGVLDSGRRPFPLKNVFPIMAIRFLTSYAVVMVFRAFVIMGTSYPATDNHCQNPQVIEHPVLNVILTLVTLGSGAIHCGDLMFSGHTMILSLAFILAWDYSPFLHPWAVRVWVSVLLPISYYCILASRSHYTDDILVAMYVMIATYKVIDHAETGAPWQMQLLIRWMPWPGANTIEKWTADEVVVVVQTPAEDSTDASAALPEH
# [3] = NINDS set screen against L. major promastigotes, single concentration printed as 10mM
# [4] = NINDS set screen, single concentration printed as 20mM
# [5] = single concentration 20mM as printed, screening of NINDS set, sheet Screen 1
compound,measurement,setting,value
Cc1cc(N)c2ccccc2[n+]1CCCCCCCCCC[n+]1c(C)cc(N)c2ccccc21,10mM inhibition L. major,[1]; [3],<5%
same,20mM inhibition LmjIPCS,[2],72%
CCN1C[C@]2(COC)[C@H](O)C[C@H](OC)[C@@]34[C@@H]5C[C@@]6(O)[C@H](OC(=O)c7ccccc7)[C@@H]5[C@@](OC(C)=O)([C@@H]([C@H](OC)[C@H]23)[C@@H]14)[C@@H](O)[C@@H]6OC [ACONITINE],10mM inhibition L. major,[1]; [3],<5%
same,20mM inhibition LmjIPCS,[2],97%
CCN(CCCc1ccccc1)CCCc1ccccc1 [ALVERINE],10mM inhibition L. major,[1]; [3],<5%
same,20mM inhibition LmjIPCS,[2]; [4],70%
CN(C)CCC=C1c2ccccc2CCc2ccccc21 [AMITRIPTYLINE],10mM inhibition L. major,[1]; [3],<5%
same,20mM inhibition LmjIPCS,[2],82%
O=C1c2c(O)cccc2Cc2cccc(O)c21 [ANTHRALIN],10mM inhibition L. major,[1]; [3],<5%
same,20mM inhibition LmjIPCS,[2]; [4],70%
CN1[C@@H]2CC[C@H]1C[C@@H](OC(c1ccccc1)c1ccccc1)C2 [BENZTROPINE],10mM inhibition L. major,[1],<5%
CCCC1O[C@@H]2C[C@H]3[C@@H]4CCC5=CC(=O)C=C[C@]5(C)[C@H]4[C@@H](O)C[C@]3(C)[C@]2(C(=O)CO)O1 (stereo partly shown) [BUDESONIDE],10mM inhibition L. major,[1]; [3],<5%
same,20mM inhibition LmjIPCS,[2]; [4],79%
COc1ccccc1OCCNCC(O)COc1cccc2[nH]c3ccccc3c12 (stereo not shown) [CARVEDILOL],10mM inhibition L. major,[1]; [3],<5%
same,20mM inhibition LmjIPCS,[2],73%
CCCCCCCCCCCCCCCC[N+](C)(C)C [CETRIMONIUM],10mM inhibition L. major,[1]; [3],<5%
same,20mM inhibition LmjIPCS,[2],75%
CC1=C2C(=CO[C@H](C)[C@H]2C)C(O)=C(C(=O)O)C1=O [CITRININ],10mM inhibition L. major,[1]; [3],<5%
same,20mM inhibition LmjIPCS,[2],76%
CC(C)NC[C@@H](O)COc1cccc2ccccc12 [DEXPROPRANOLOL],10mM inhibition L. major,[1],<5%
C[C@]12CC[C@@H]3c4ccc(O)cc4CC[C@H]3[C@@H]1CC[C@@H]2OC(=O)CCC1CCCC1 [ESTRADIOL CYPIONATE],10mM inhibition L. major,[1]; [3],<5%
same,20mM inhibition LmjIPCS,[2],83%
CCC(=O)O[C@H]1CC[C@H]2[C@@H]3CCc4cc(O)ccc4[C@H]3CC[C@]12C [ESTRADIOL PROPIONATE],10mM inhibition L. major,[1]; [3],<5%
same,20mM inhibition LmjIPCS,[2]; [4],74%
CCCCC(CC)CN1CN(CC(CC)CCCC)CC(C)(N)C1 (stereo not shown) [HEXETIDINE],10mM inhibition L. major,[1]; [3],<5%
same,20mM inhibition LmjIPCS,[2]; [4],85%
CN(C)CCCN1c2ccccc2CCc2ccccc21 [IMIPRAMINE],10mM inhibition L. major,[1]; [3],<5%
CNCCCC12CCC(c3ccccc31)c1ccccc12 [MAPROTILINE],10mM inhibition L. major,[1],<5%
CN1CCc2c(c3ccccc3n2Cc2ccccc2)C1 [MEBHYDROLIN],10mM inhibition L. major,[1]; [3],<5%
same,20mM inhibition LmjIPCS,[2]; [4],72%
Cc1cccc(CN2CCN(C(c3ccccc3)c3ccc(Cl)cc3)CC2)c1 (stereo not shown) [MECLIZINE],10mM inhibition L. major,[1]; [3],<5%
same,20mM inhibition LmjIPCS,[2],78%
Clc1ccc(COC(Cn2ccnc2)c2ccc(Cl)cc2Cl)c(Cl)c1 (stereo not shown) [MICONAZOLE],10mM inhibition L. major,[1],<5%
NC[C@@H]1O[C@H](O[C@H]2[C@@H](O)[C@H](O[C@@H]3[C@@H](O)[C@H](N)C[C@H](N)[C@H]3O[C@H]3O[C@H](CN)[C@@H](O)[C@H](O)[C@H]3N)O[C@@H]2CO)[C@H](N)[C@@H](O)[C@@H]1O [NEOMYCIN],10mM inhibition L. major,[1]; [3],<5%
same,20mM inhibition LmjIPCS,[2]; [4],88%
CO[C@]12C[C@@H](COC(=O)c3cncc(Br)c3)CN(C)[C@@H]1Cc1cn(C)c3cccc2c13 [NICERGOLINE],10mM inhibition L. major,[1]; [3],<5%
same,20mM inhibition LmjIPCS,[2],80%
CN[C@H](CC(C)C)C(=O)N[C@H]1C(=O)N[C@@H](CC(N)=O)C(=O)N[C@H]2C(=O)N[C@H]3C(=O)N[C@H](C(=O)N[C@H](C(=O)O)c4cc(O)cc(O)c4-c4cc3ccc4O)[C@H](O)c3ccc(c(Cl)c3)Oc3cc2cc(c3O[C@@H]2O[C@H](CO)[C@@H](O)[C@H](O)[C@H]2O[C@H]2C[C@](C)(N)[C@H](O)[C@H](C)O2)Oc2ccc(cc2Cl)[C@H]1O [VANCOMYCIN],inhibition at 20000 µM,[2],31%
COc1ccc(C(CN(C)C)C2(O)CCCCC2)cc1 (stereo not shown) [VENLAFAXINE],inhibition at 20000 µM,[2],26%
COc1ccc(C(=O)O[C@H]2CC[C@@]3(C)[C@@H]4CC[C@H]5[C@]6(O)C[C@H](O)[C@@]7(O)[C@@H](CN8C[C@@H](C)CC[C@H]8[C@@]7(C)O)[C@]6(O)C[C@@]53O[C@]24O)cc1OC [VERATRIDINE],inhibition at 20000 µM,[2],11%
Nc1ncnc2c1ncn2[C@@H]1O[C@H](CO)[C@@H](O)[C@@H]1O [VIDARABINE],inhibition,[2],10%
CC[C@]12CCCN3CCc4c(n(c5ccccc45)C(=O)C1)[C@@H]32 [VINBURNINE],20mM inhibition LmjIPCS,[2]; [4],55%
CC[C@]12CCCN3CCc4c(n(c5ccccc45)[C@@](O)(C(=O)OC)C1)[C@@H]32 [VINCAMINE],inhibition,[2]; NINDS set screen,-17%
CCOC(=O)C1=C[C@]2(CC)CCCN3CCc4c(n1c1ccccc41)[C@@H]32 [VINPOCETINE],20mM inhibition LmjIPCS,[2]; [4],36%
COC(=O)/C(=C1/OC(=O)C(c2ccccc2)=C1O)c1ccccc1 [VULPINIC ACID],inhibition,[2]; NINDS set screen,13%
Cc1cccc(C)c1N=C1NCCCS1 [XYLAZINE],inhibition at 20000 µM,[2],-14%
Cc1cc(C(C)(C)C)cc(C)c1CC1=NCCN1 [XYLOMETAZOLINE],20mM inhibition LmjIPCS,[2]; [4],62%
O=C(O)c1cc(O)c2cccc(O)c2n1 [X[…]],inhibition at 20000 µM,[2],8%
COC(=O)[C@@H]1[C@H]2C[C@H]3c4[nH]c5ccccc5c4CCN3C[C@@H]2CC[C@@H]1O [YOHIMBINE HYDROCHLORIDE],inhibition,[2],23%
CCCOc1ccccc1-c1nc2nn[nH]c2c(=O)[nH]1 [ZAPRINAST],inhibition,"[2]; screening of NINDS set, sheet Screen 1",7%
Cc1cn([C@H]2C[C@H](N=[N+]=[N-])[C@@H](CO)O2)c(=O)[nH]c1=O [ZIDOVUDINE [AZT]],20mM inhibition LmjIPCS,[2]; [5],7%
CN(C)CCc1c[nH]c2ccc(C[C@H]3COC(=O)N3)cc12 [ZOLMITRIPTAN],20mM inhibition LmjIPCS,[2],44%
Cc1cc(CC(=O)O)n(C)c1C(=O)c1ccc(Cl)cc1 [ZOMEPIRAC],inhibition at 20000 µM,[2],10%
N#C/C(=C\c1cccc(O)c1)C(=O)O [alpha-CYANO-3-HYDROXYCINNAMIC ACID],inhibition at 20000 µM,[2],8%
CC(=O)Oc1c(C)c(C)c2c(c1C)CCC(C)(CCC[C@H](C)CCC[C@H](C)CCCC(C)C)O2 (stereo partly drawn) [alpha-TOCOPHERYL ACETATE],inhibition at 20000 µM,[2],-0.425%
CC1=C(/C=C/C(C)=C/C=C/C(C)=C/C=C/C=C(C)/C=C/C=C(C)/C=C/C2=C(C)CCCC2(C)C)C(C)(C)CCC1 [beta-CAROTENE],20mM inhibition LmjIPCS,[2],45%
COc1cc([C@@H]2c3cc4c(c(O)c3C[C@H]3COC(=O)[C@@H]32)OCO4)cc(OC)c1OC [beta-PELTATIN],inhibition at 20000 µM,[2],-1.86%
"CCN(CC)CCOc1ccc(C(=C(Cl)c2ccccc2)c2ccccc2)cc1 [clomiphene 4, clomiphene, reference compound]",10mM inhibition L. major,[1],65%
same,ED50 vs L. major,[1],6.57 mM
"CN(C)CCC=C1c2ccccc2COc2ccccc21 [doxepin 5, doxepin, reference compound]",10mM inhibition L. major,[1],44%
same,ED50 vs L. major,[1],30.00 mM
"Fc1ccc(C(c2ccc(F)cc2)N2CCN(C/C=C/c3ccccc3)CC2)cc1 [flunarizine 7, flunarizine, reference compound]",10mM inhibition L. major,[1],56%
same,ED50 vs L. major,[1],1.73 mM
NCCCC(=O)O [gamma-AMINOBUTYRIC ACID],inhibition,[2],-20%
NC(Cc1ccc(Cl)cc1)C(=O)O (stereo not shown) [p-CHLOROPHENYLALANINE],20mM inhibition LmjIPCS,[2]; [5],4%
"CN1CCN(CCCN2c3ccccc3Sc3ccc(Cl)cc32)CC1 [prochlorperazine edisylate 11, prochlorperazine edisylate, reference compound]",10mM inhibition L. major,[1],11%
same,ED50 vs L. major,[1],12.90 mM
"CC(C)NCC(O)COc1cccc2ccccc12 (stereo not shown) [propranolol 12, propranolol, reference compound]",10mM inhibition L. major,[1],84%
same,ED50 vs L. major,[1],4.91 mM
"CN[C@H]1CC[C@@H](c2ccc(Cl)c(Cl)c2)c2ccccc21 [sertraline 13, sertraline, reference compound]",ED50 vs L. major,[1],14.58 mM
BACITRACIN,20mM inhibition LmjIPCS,[2]; [4],44%
BENZALKONIUM CHLORIDE,20mM inhibition LmjIPCS,[2],9%
CAPREOMYCIN,20mM inhibition LmjIPCS,[2]; [4],52%
COLISTIMETHATE,20mM inhibition LmjIPCS,[2]; [4],56%
CRESOL,20mM inhibition LmjIPCS,[2],53%
DEGUELIN(-),20mM inhibition LmjIPCS,[2],51%
HECOGENIN,20mM inhibition LmjIPCS,[2],23%
MERBROMIN,20mM inhibition LmjIPCS,[2],-21%
SPIRAMYCIN,20mM inhibition LmjIPCS,[2]; [5],10%
